Assay results taken from patent US20240415804A1, “METHOD OF TREATING PANCREATIC CANCER” (University of South Florida, priority 2022, published 2024).

Tests used:
[1] = test system: miR-155; experiment: miR-155 gene expression by RT-qPCR in MiaPaCa-2 cells; type: cell-based, human; conditions: API 40 μM, 24 h, vs DMSO vehicle
Protocol: MiR-155 is known to be overexpressed in different cancers, including PC^21, 23. The inventors first assessed whether apigenin could modulate the expression of miR-155 in PC cells. Murine PC cell lines Panc02 and UN-KC-6141 as well as the human PC cell line MiaPaCa-2 were treated with API (40 μM) or DMSO vehicle for 24 h and the expression of miR-155 was examined using RT-qPCR assay. […] Since API is known to inhibit the growth of cancer cells, including PC cells^39-43, 47-50, the same PC cell lines were treated with API (40 μM) or DMSO (vehicle) for 24 h and examined cell viability using MTT assay. […] Moreover, Panc02 and UN-KC-6141 cells were then treated with API at a dose dependent concentration (10, 20, 30, 40, 50 μM) and detected apoptosis using flow cytometry (Annexin V and PI).
miR-155 is implicated in the development of pancreatic tumors from pancreatic intraepithelial neoplasia (PanIN) lesions, and is overexpressed in PC^23. The inventors examined whether the depletion of miR-155 modulated PC viability. Murine and human PC cell lines were transfected with miR-155 inhibitor (i.e., MMU-MIR-155-5P/HSA-MIR-155-5P) and scrambled miRNA at a concentration of 100 nM for 24 h and cell viability determined using an MTT assay. The expression of miR-155 was examined using an RT-qPCR assay as well. […]

[2] = test system: CD40; experiment: Flow cytometry of CD40 expression on M1 TAM in tumors of KC-HPC mice; type: in vivo, mouse; conditions: KC-HPC-API vs KC-HPC mice
Protocol: The inventors then assessed the expression of CD40 (a T cell co-stimulation marker) on M1 TAM (gated as MHC-II^+ and CD206) within the tumor from KC-HPC vs. KC-HPC-API mice. […] The femur and tibia were cut at the pelvic-hip joint and muscle was removed. The femurs and tibias were cut at the ends and flushed with a 30-gauge needle and 10 cc syringe filled with completed RPMI media until bone was white onto a petri dish. Pelleted bone marrow (BM) cells were treated with Red Blood Cell (RBC) lysis buffer (eBioscience, Waltham, MA, USA), according to the manufacturer's instructions, and then filtered through a […] nylon mesh cell strainer in 1×PBS. All pancreatic tumors were manually cut into ˜1-2 mm^3 fragments with a sterile razor blade and then enzymatically digested with Collagenase, type IV (Sigma-Aldrich), DNase, type IV (Sigma-Aldrich) and Hyaluronidase, Type V (Sigma-Aldrich) in Hank's Balanced Salt Solution for 1 h, spun down and washed as described in previous studies^61. Digested pancreatic tumor samples were treated with RBC lysis buffer and then filtered through a […] nylon mesh cell strainer in 1×PBS. Bone marrow and digested pancreatic tumor single cell suspensions were counted with a hemocytometer and then resuspended in 3% FBS/PBS. […]

In the case of `O=c1cc(-c2ccc(O)cc2)oc2cc(O)cc(O)c12` [API, 40,5,7-Trihydroxyflavone, 5,7-Dihydroxy-2-(4-hydroxyphenyl)-4-benzopyrone], the miR-155 gene expression [1] was “significantly suppressed” and the “CD40 expression on M1 TAM in tumor” value [2] was “significantly upregulated”.
